Measured values as given in patent US20230355599A1, “BIOMARKERS FOR CBL, AND COMPOSITIONS AND METHODS FOR THEIR USE” (NURIX THERAPEUTICS, INC., priority 2022, published 2023).

Key:
phosphorylated PLCγ2 = assay: Phosphorylated PLCγ2 in circulating CD8+ T cells after oral dosing of cynomolgus monkeys (flow cytometry, ex vivo anti-CD3/CD28 stimulation)
Experimental: To assess these proximal biomarkers of Cbl-b inhibition on CD8^+ T cells, pharmacodynamic analysis was performed in conjunction with a pharmacokinetic study conducted at Charles River Laboratories. Circulating blood was obtained from cynomolgus monkeys treated with 0.3, 1, 3 or 10 mg/kg of Compound 23 after a single dose and after 3 doses. The response to Cbl-b inhibition on proximal biomarkers (pHS1, pPLCγ2, and pZAP70) was measured in CD8^+ T cells using flow cytometry. This technique is highly quantitative and can measure multiple phosphorylation markers in different cell populations within the same sample.
Compound 23 was formulated in vehicle (0.2% Tween 80 in DI water+1 eq HCL) and aliquoted into individual (not serially diluted) dosing solutions of 0.3, 1, 3 and 10 mg/mL by stirring for 5-10 min, vortexing, and sonicating again as necessary to produce an even suspension that was stirred constantly at 4° C. to achieve and maintain a homogenous suspension. To prepare vehicle, 0.2% Tween 80 in deionized (DI) water, water was measured into a beaker with continuous stirring. Tween 80 was added sequentially, and stirring continued until the solution dissolved; the solution was stored at 2-8° C.
For pharmacodynamic analysis, whole blood was obtained from cynomolgus monkeys and used for flow cytometry assays to evaluate phosphorylated biomarkers, pHS1, pPLCγ2, and pZAP70, in circulating CD8^+ T cells.
On the day of dosing, blood samples were collected via femoral venipuncture in accordance with test facility standard operating procedures. 1 mL/tube of whole blood was collected pre-dose (time 0) and at 0.5, 1, 2, 4, 6, and 24 hours post-dose and added into 2 types of TruCulture tubes (Myriad) for pharmacodynamic analysis. One tube contained media alone and is denoted as “Null”, and the second tube contained 2 μg/mL anti-CD3 and anti-CD28, which were prepared at Nurix prior to the study using cynomolgus specific anti-CD3 (BD Biosciences; SP34-2) and anti-CD28 (Bio X cell; CD28.2) and denoted as “CD3/CD28”. Tubes were shipped by overnight courier on cold pack the day of collection and analyzed for phosphorylated biomarkers of Cbl-b inhibition by flow cytometry.
Following PD collection, upon receipt of TruCulture tubes, each tube was inverted 5-6 times to ensure a mixed suspension of blood. 30 μg of goat anti-mouse IgG (H+L) antibody (Invitrogen) was added to cross-link the stimulation antibodies and induce synchronized cellular stimulation. Cells were stimulated for 60 minutes alongside non-stimulated controls for each time point.
All buffers (Phosflow Lyse/Fix Buffer 5×, Phosflow Perm Buffer I; BD Biosciences) were prepared according to the manufacturer's instructions. […]

pY759-PLCg2 = assay: Phosphoprotein screen in human whole blood with CBL inhibitor at 10 uM: PLCγ2; assay type: cell-based; details: 1 hr 37° C., human whole blood 8 donors, anti-CD3/CD28 + crosslinker 60 minutes
Experimental: To identify proximal biomarkers of CBL-B inhibition in immune cells, a panel of phosphorylated proteins were screened in human whole blood incubated with CBL-B inhibitor and concomitant anti-CD3 and anti-CD28 antibodies. The effect of CBL-B inhibition was assessed across multiple cellular signaling networks.
Human heparinized whole blood from 8 donors was received after an overnight shipment at 4° C. The blood was plated, treated with CBL inhibitor at 10 uM and incubated at 37° C. for 60 minutes. After incubation, the cells were stimulated with anti-CD3/CD28 followed by a cross-linking antibody (30 μg of goat anti-mouse IgG (H+L) antibody (Invitrogen)). After 60 minutes, the cells were fixed, and stained using surface markers for T cells (CD3^+CD4^+& CD3^+CD8^+) and analyzed by flow cytometry for target phosphorylation of the following markers: pY180/pY511-ITK, pY397-HS1, pY759-PLCg2, pY783-PLCg1, pY525/pY526/pY348-SYK & pY319-Zap70.
Fold change of each biomarker was calculated with the following example equation: […]
Whole blood from eight human donors was collected in sodium heparin anti-coagulant treated with 10 μM of Compound 23 for 1 hr at 37° C. […] Fold change of % phosphorylation normalized to DMSO was quantitated in T cells (CD8^+) using flow cytometry is provided in FIGS. 6A-6B.

**Q.** For `C[C@H]1CCCN(Cc2cc3c(c(C(F)(F)F)c2)CN(c2cccc([C@]4(c5nncn5C)C[C@@H](C)C4)c2)C3=O)C1` [Compound 23], which “phosphorylated PLCγ2 in comparison to baseline” value (phosphorylated PLCγ2; multiple doses of 10 mg/kg, 3 days of daily oral dosing) is on record?
**A.** significant increases

**Q.** What about the “time of peak increase of phosphorylated PLCγ2” value (phosphorylated PLCγ2; multiple doses of 10 mg/kg, 4 hours post dose) of the same compound?
**A.** 76 h

**Q.** What about the “time of maximal signal, phosphorylated PLCγ2” value (phosphorylated PLCγ2; single dose oral 10 mg/kg) of the same compound?
**A.** 2 hours post dose

**Q.** And the “phosphorylated PLCγ2 in comparison to baseline” value (phosphorylated PLCγ2; single dose oral 10 mg/kg, circulating CD8+ T cells, anti-CD3/CD28 stimulated)?
**A.** significant increases

**Q.** And the “increased phosphorylation of PLCγ2 compared to DMSO control” value (pY759-PLCg2)?
**A.** 3-4 fold
